Assay results reported in patent US9221868B2, “Uridine di- or tri-phosphate derivatives and uses thereof” (BAR-ILAN UNIVERSITY, priority 2010, dated 2015).
“Also recorded” adds a separate entry of the source. Where two headings read alike, the source gives them in different places.

Columns and labels:
P2Y2-R [1] = biological target: T1, P2Y2-R (Homo sapiens, UniProt P41231); assay: [Ca2+]i increase in 1321N1 astrocytoma cells expressing P2Y2-R; format: cell-based; set-up: expressed in transfected cells; host or cells: 1321N1 astrocytoma cells
Experimental: (§1) Green fluorescent protein (GFP) constructs of human P2Y2-R, P2Y4-R and P2Y6-R were expressed in 1321N1 astrocytoma cells, which lack endogenous expression of P2X- and P2Y-receptors. The respective cDNA of the receptor gene was cloned into a pEGFPN1 vector. After transfection using FuGENE 6 Transfection Reagent (Roche Molecular Biochemicals, Mannheim, Germany), the cells were selected with 0.5 mg/ml G418 (geneticine; Merck Chemicals, Darmstadt, Germany) and grown in Dulbecco's modified Eagles' medium (DMEM) supplemented with 10% fetal calf serum, 100 U/ml penicillin and […] at 37° C. and 5% CO2. The expression and cell membrane localization of the respective P2Y receptors was confirmed through the analysis of the GFP fluorescence. The functionality of the expressed GFP-labeled receptor in cells was verified by recording a change of [Ca^2+]i after stimulation with the appropriate receptor agonist.
(§2) 1321N1 astrocytoma cells transfected with the respective plasmid for P2YR-GFP expression plated on coverslips (22 mm diameter) and grown to approximately 80% density were incubated with 2 μM fura 2/AM and 0.02% pluronic acid in Na-HBS buffer (Hepes buffered saline: 145 mM NaCl, 5.4 mM KCl, 1.8 mM CaCl2, 1 mM MgCl2, 25 mM glucose, 20 mM Hepes/Tris pH 7.4) for 30 min at 37° C. The cells were superfused (1 ml/min, 37° C.) with different concentrations of nucleotide in Na-HBS buffer, and the nucleotide-induced change of [Ca^2+]i was measured by detecting the respective emission intensity of fura 2/AM at 510 nm with after 340 nm and 380 nm excitations (Ubl et al., 1998). The average maximal amplitude of the responses and the respective standard errors were calculated from the ratio of the fura 2/AM fluorescence intensities with excitations at 340 nm and 380 nm (only MT-labeled cells were analysed). Microsoft Excel (Microsoft Corp., Redmond, Wash., USA) and SigmaPlot (SPSS Inc., Chicago, Ill., USA) were used to derive the concentration-response curves and EC50 values from the average response amplitudes obtained in at least three independent experiments (Ecke et al., 2006, 2008). Only cells with a clear MT-signal and with the typical calcium response kinetics upon agonist pulse application were included in the data analysis. The GFP-tagged P2Y receptors are suitable for pharmacological and physiological studies, as previously reported (Tulapurkar et al., 2004, 2006; Zylberg et al., 2007).
(§3) In this study, analogues 13-17 were tested for their potency and selectivity at P2Y2,4,6-receptors based on measurements of increases in intracellular calcium concentrations in 1321N1 astrocytoma cells transfected with the respective plasmid, as described in Materials and Methods, and the results are summarized in Table 2.

P2Y6-R = biological target: T2, P2Y6-R (Homo sapiens, UniProt Q15077); assay: [Ca2+]i increase in 1321N1 astrocytoma cells expressing P2Y6-R; format: cell-based; details: for EC50: 1321N1 astrocytoma cells, [Ca2+]i, read-out: Potencies (EC50) at the P2Y6-R; for Activity at the P2Y6-R (in words): 1321N1 cells
T2 construct: expressed in transfected cells; host or cells: 1321N1 astrocytoma cells
Experimental: as §1, §2
1321N1 cell lines stably expressing the human P2Y6 receptors were grown as previously described in DMEM (5% FBS, 100 IU/ml penicillin, 100 μg/ml streptomycin, 1× Glutamax, 10 mM Hepes and 0.5 mg/ml G-418) at 37° C. in a humidified atmosphere containing 5% CO2 and 95% air (Gendron et al., 2003).
1321N1 cells (10×10^6 cells grown in 10 cm^2 dishes) were harvested by a brief trypsin/EDTA treatment, suspended in complete culture medium, and washed by centrifugation for 3 min at 100×g before being incubated with 1 μM Fluo 4/AM in 4.5 ml HBSS with Ca^2+ and Mg^2+ (Wisent, St. Bruno, QC) for 25 min at 37° C. Cells were washed by centrifugation (100×g, 3 min), suspended in HBSS containing Ca^2+ and Mg^2+, and incubated for 25 min at 37° C. Cells were washed and suspended in 16 ml of FIBSS containing Ca^+ and Mg^2+. Cell suspension (2 ml) was gently stirred in a quartz cuvette while [Ca^2+]i and monitored on a RF-5301 PC Shimadzu spectrofluorometer with Panormama fluorescence 1.1 software (Man-Tech, Guelph, ON). Excitation wavelengths of 488 nm and emission wavelength of 520 nm were used to measure changes in intracellular Fluo 4 fluorescence intensity (F). At the end of each recording, maximal fluorescence (Fmax) and minimal fluorescence (Fmin) were determined by adding successively 0.1% Triton X-100 and 50 mM EDTA to cell suspensions. The following equation from Grynkiewicz et al. (1985) was used to relate the fluorescence intensity to Ca^2+ levels: [Ca^2+]=Kd×(F−Fmin)/(Fmax−F), wherein Kd is the Ca^+ dissociation constant of the indicator (345 nM). […]

P2Y4-R = biological target: T3, P2Y4-R (Homo sapiens, UniProt P51582); assay: [Ca2+]i increase in 1321N1 astrocytoma cells expressing P2Y4-R; format: cell-based; details: n.d.r = no detectable response up to 100 μM
T3 construct: expressed in transfected cells; host or cells: 1321N1 astrocytoma cells
Experimental: as §1, §2, §3

[2] = tested on: intraocular pressure in normotense rabbits; details: cited from earlier work
P2Y2 receptor = P2Y2 receptor (Rattus norvegicus, UniProt P41232); details: compared to ATP and UTP; Tulapurkar et al., 2004; cited from earlier work
physchem = details: for Rate constant of phosphate ester hydrolysis at pH 1.4: pH 1.4, 37° C., pseudo-first-order
Experimental: All stability experiments were performed in duplicates.
The stability of UDP, 11, 12 and 13A in a buffer solution (pH 1.4) was evaluated by ^31P NMR at 37° C. for monitoring possible dephosphorylation products (the signal of the phosphate hydrolysis products is at ˜0 ppm, while that of the borano phosphate analogues is at ˜85 ppm). NMR spectra were recorded on a Bruker DMX-600 spectrometer with a ^31P NMR probe (isotope frequency of 240 MHz) using 85% H3PO4 as an external reference.
Sodium salts of UDP, 11, 12 and 13A were dissolved in 0.45 ml of KCl/HCl buffer (pH 1.4) and D2O (0.05 ml) was added. The final pH was adjusted to pH 1.4. pH measurements were performed with an Metrohm pH electrode and a Metrohm 827 meter. Spectra were recorded at 15 min, 1 h, or 24 h time intervals at 37° C. For experiments that were several days long, the solution was kept in an oil bath at 37° C. and spectra were recorded at ca. 24 h time intervals. The phosphate ester hydrolysis rate was determined by measuring the change of the integration of one of the phosphates signals of the starting material with time.

P2Y2-R [3] = biological target: T1, P2Y2-R; details: Ginsburg-Shmuel et al., 2010; read-out: EC50 at P2Y2-R (literature); cited from earlier work
[4] = 1321N1 astrocytoma cells, [Ca2+]i, n.d.r = no detectable response up to 100 μM

T1 sequence (P41231 whole entry): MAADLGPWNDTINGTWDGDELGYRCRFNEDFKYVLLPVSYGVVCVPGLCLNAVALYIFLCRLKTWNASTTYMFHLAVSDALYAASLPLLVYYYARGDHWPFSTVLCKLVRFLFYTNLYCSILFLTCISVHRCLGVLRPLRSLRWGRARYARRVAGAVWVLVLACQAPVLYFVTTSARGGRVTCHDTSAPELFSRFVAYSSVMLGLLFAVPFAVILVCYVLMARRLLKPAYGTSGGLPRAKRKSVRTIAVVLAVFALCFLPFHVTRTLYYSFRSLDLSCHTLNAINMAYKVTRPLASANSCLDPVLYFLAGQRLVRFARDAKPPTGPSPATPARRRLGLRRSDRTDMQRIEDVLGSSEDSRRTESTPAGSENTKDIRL
T3 sequence (P51582 whole entry): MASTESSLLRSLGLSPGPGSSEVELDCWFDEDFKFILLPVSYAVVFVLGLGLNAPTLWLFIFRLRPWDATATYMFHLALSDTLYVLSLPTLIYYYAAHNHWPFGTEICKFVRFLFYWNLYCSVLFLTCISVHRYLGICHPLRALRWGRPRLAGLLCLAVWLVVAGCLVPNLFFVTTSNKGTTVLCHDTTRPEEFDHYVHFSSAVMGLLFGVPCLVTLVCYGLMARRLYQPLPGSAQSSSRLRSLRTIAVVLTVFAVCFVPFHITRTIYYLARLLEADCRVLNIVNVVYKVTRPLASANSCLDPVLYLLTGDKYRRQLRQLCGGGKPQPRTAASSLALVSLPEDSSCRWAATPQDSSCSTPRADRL
T2 sequence (Q15077 whole entry): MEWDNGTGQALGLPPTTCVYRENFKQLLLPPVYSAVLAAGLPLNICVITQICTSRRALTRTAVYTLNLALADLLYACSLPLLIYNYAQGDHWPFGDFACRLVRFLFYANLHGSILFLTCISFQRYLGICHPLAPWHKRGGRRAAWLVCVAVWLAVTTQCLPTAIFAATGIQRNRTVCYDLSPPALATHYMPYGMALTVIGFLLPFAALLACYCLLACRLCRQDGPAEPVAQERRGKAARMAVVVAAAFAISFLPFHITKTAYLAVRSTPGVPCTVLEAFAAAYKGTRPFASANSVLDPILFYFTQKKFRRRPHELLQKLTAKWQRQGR
Chain of P2Y2 receptor (P41232 whole entry): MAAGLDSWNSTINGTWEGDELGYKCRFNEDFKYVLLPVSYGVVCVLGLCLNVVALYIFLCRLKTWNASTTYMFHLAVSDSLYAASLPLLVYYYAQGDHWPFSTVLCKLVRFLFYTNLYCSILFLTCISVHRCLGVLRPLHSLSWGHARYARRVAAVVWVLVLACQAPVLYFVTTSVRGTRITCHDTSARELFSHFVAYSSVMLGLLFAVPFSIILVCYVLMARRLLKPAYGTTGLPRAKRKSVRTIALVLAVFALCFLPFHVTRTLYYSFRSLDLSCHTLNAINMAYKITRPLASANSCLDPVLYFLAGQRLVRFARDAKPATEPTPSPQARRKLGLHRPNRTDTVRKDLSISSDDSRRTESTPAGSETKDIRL

Compound	Potencies (EC50) at the P2Y2-R (P2Y2-R [1]; [4])	EC50 (P2Y6-R) [nM]	Potencies (EC50) at the P2Y4-R (P2Y4-R)	other results
[BH3-][P+](O)(OCC1OC(n2cc(OC)c(=O)[nH]c2=O)C(O)C1O)OP(=O)(O)O (single isomer, unassigned) [Analogue 13B, 5-methoxyuridine-5′-O-(α-boranodiphosphate)]	n.d.r	4300	n.d.r	
[BH3-][P+](O)(OC[C@H]1O[C@@H](n2cc(OC)c(=O)[nH]c2=O)[C@H](O)[C@@H]1O)OP(=O)(O)OP(=O)(O)O (single isomer, unassigned) [Analogue 14A, 5-methoxyuridine-5′-O-(α-boranotriphosphate)]	n.d.r	11200 ± 630	n.d.r	
[BH3-][P+](O)(OC[C@H]1O[C@@H](n2cc(OC)c(=O)[nH]c2=O)[C@H](O)[C@@H]1O)OP(=O)(O)OP(=O)(O)O (single isomer, unassigned) [Analogue 14B, 5-methoxyuridine-5′-O-(α-boranotriphosphate)]	n.d.r	20100 ± 700	n.d.r	
[BH3-][P+](O)(OCC1OC(n2cc(OC)c(=O)[nH]c2=O)C(O)C1O)OP(=O)(O)OP(=O)(O)OCC1OC(n2cc(OC)c(=O)[nH]c2=O)C(O)C1O (single isomer, unassigned) [Analogue 16A, di-(5-OMe)-uridine 5′,5″-P^1,P^3,α-boranotriphosphate]	n.d.r	60	n.d.r	Less potent than mono-nucleotide counterpart 13A at P2Y6-R (P2Y6-R; ratio of EC50 values): about 9 times
[BH3-][P+](O)(OCC1OC(n2cc(OC)c(=O)[nH]c2=O)C(O)C1O)OP(=O)(O)OP(=O)(O)OCC1OC(n2cc(OC)c(=O)[nH]c2=O)C(O)C1O (single isomer, unassigned) [Analogue 16B, di-(5-OMe)-uridine 5′,5″-P^1,P^3,α-boranotriphosphate]	n.d.r	2200	n.d.r	
CSc1nc(N)c2ncn([C@@H]3O[C@H](COP(=O)(O)OP(=O)(O)C(Cl)(Cl)P(=O)(O)O)[C@@H](O)[C@H]3O)c2n1 [2MeS-adenosine-β,γ-CCl2-5′-triphosphate]				Duration of effect on IOP (literature) [2]: about 5 hours; Reduction of IOP (literature) [2]: 32%; EC50 ([2]; read-out: EC50 of IOP reduction (literature)): 95.5 nM
BP(=O)(OC[C@H]1O[C@@H](n2cnc3c(N)ncnc32)[C@H](O)[C@@H]1O)OP(=O)(O)OP(=O)(O)O (stereo partly drawn) [ATP(α-B)]				Response at the P2Y2 receptor (in words, literature) (P2Y2 receptor): very weak response
[BH3-][P+](O)(OC[C@H]1O[C@@H](n2ccc(=O)[nH]c2=O)[C@H](O)[C@@H]1O)OP(=O)(O)O (stereo partly drawn) [Analogue 11, Uridine-5′-O-(α-boranodiphophate), reference compound]				Half-life in human blood serum: 21 h; Rate constant of phosphate ester hydrolysis at pH 1.4 (physchem): 1.14×10^−5 s^−1
BP(=O)(OCC1OC(n2cc(OC)c(=O)[nH]c2=O)C(O)C1O)OP(=O)(O)O (stereo not drawn) [Analogue 13, 5-methoxyuridine-5′-O-(α-boranodiphosphate)]				Half-life (t1/2) of hydrolysis at pH 1.4 (physchem; buffer, pH 1.4): 16.9 h; Rate constant of phosphate ester hydrolysis at pH 1.4 (physchem): 1.31×10^−5 s^−1
BP(=O)(OC[C@H]1O[C@@H](n2cc(OC)c(=O)[nH]c2=O)[C@H](O)[C@@H]1O)OP(=O)(O)OP(=O)(O)O (stereo partly drawn) [Analogue 14, 5-methoxyuridine-5′-O-(α-boranotriphosphate)]				Activity at the P2Y2-receptor (in words) (P2Y2-R [1]; 1321N1 cells): completely inactive; Activity at the P2Y6-R (in words) (P2Y6-R): hardly active
COc1cn([C@@H]2O[C@H](COP(=O)(O)OP(=O)(O)OP(=O)(O)OC[C@H]3O[C@@H](n4cc(OC)c(=O)[nH]c4=O)[C@H](O)[C@@H]3O)[C@@H](O)[C@H]2O)c(=O)[nH]c1=O [Analogue 15, di-(5-OMe)-uridine 5′,5″-P^1,P^3, triphosphate]	n.d.r	> 10000	n.d.r	Activity at the P2Y6-R (in words) (P2Y6-R): least active P2Y6-R agonist; also recorded: weakest potency among the tested nucleotides
[BH3-][P+](O)(OP(=O)(O)OC[C@H]1O[C@@H](n2cc(OC)c(=O)[nH]c2=O)[C@H](O)[C@@H]1O)OP(=O)(O)OC[C@H]1O[C@@H](n2cc(OC)c(=O)[nH]c2=O)[C@H](O)[C@@H]1O [Analogue 17, di-(5-OMe)-uridine 5″5″-P^1,P^3,β-boranotriphosphate]	n.d.r	200	n.d.r	
O=c1ccn([C@@H]2O[C@H](COP(=O)(O)OP(=O)(O)OP(=O)(O)O)[C@@H](O)[C@H]2O)c(=O)[nH]1 [UTP, reference compound]				EC50 (P2Y2-R [3]): 100 nM; EC50 (P2Y2-R [1]; 1321N1 astrocytoma cells, [Ca2+]i, n.d.r = no detectable response up to 100 μM, read-out: Potencies (EC50) at the P2Y2-R): 140 nM; EC50 (P2Y4-R; read-out: Potencies (EC50) at the P2Y4-R): 900 nM
